Literature values, collected in patent publication US20110038802A1, “METHOD OF DETERMINING ALANINE TRANSAMINASE (ALT) ACTIVITY BY 13C-MR DETECTION USING HYPERPOLARISED 13C-PYRUVATE” (priority 2008, published 2011).

Conditions: human full blood, 37° C.

- T1 relaxation: about 42 s
SMILES: CC(=O)C(=O)O [^13C1-pyruvate, sodium ^13C1-pyruvate]
